Drawing on patent publication US10213407B2, “Compounds and methods for inhibiting production of trimethylamine” (The Procter & Gamble Company, priority 2015, dated 2019), this text covers IC50 for 36 molecules.

pIC50: −log10 of the molar value.

The assay relates to Proteus mirabilis 29906 (Pm) lysate. As to the kind of experiment: Inhibition of formation of TMA from choline in Proteus mirabilis lysate (d9-choline to d9-TMA, LC-MS/MS). In kind it is biochemical. The note with it: conversion of choline to TMA; Pm lysate 1.5 mg/mL protein, 50 μM d9-choline chloride, 37° C., two hours; read-out: TMA Inhibition (IC50, mol/L). The protocol:
EXAMPLE 2 Assay for identifying and characterizing compounds that inhibit the formation of TMA from choline.
This example provides an exemplary assay for identifying and characterizing compounds that inhibit the formation of TMA from choline.
Proteus mirabilis 29906 (Pm) strain was grown aerobically overnight in 500 ml of Nutrient Broth media (3 g/L beef extract, 5 g/L Peptone; Difco #234000) at 37° C. with 250 rpm shaking. The biomass was pelleted by centrifugation at 6000×g for 12 minutes at 4° C. The cell pellet was suspended in 240 mL of ice-cold 1× Phosphate Buffered Saline (Ca^2+ and Mg^2+ free). Ninety micrograms of Lysozyme (Sigma #L6876 Lot #SLBG8654V; Sigma-Aldrich Corp., St. Louis, Mo.) was added and incubated with 320 rpm shaking for 30 minutes at 4° C. Lysis was achieved via French press with a 4° C. prechilled 1″ diameter chamber at 1000 psi (high ratio; internal PSI equivalent ˜16000). The lysate was centrifuged at 6,000×g for 12 minutes at 4° C. to pellet extra debris. A protein concentration of the centrifuged lysate supernatant was determined by a BCA Protein Assay Kit (Pierce #23225; Thermo Fisher Scientific Co., Waltham, Mass.) and protein concentration adjusted to 3 mg/ml with 1× Dulbecco's phosphate buffered saline (DPBS). The centrifuged supernatant lysate was aliquoted into 20 mL volumes and stored frozen at −80° C.
Proteus mirabilis 29906 (Pm) lysate was diluted to 1.5 mg/mL protein with 1×DPBS. Choline chloride (CC) (1M stock) was added to reach a final concentration of 2.5 mM choline chloride. The mixture was mixed using a vortex mixer for approximately 15 seconds and incubated at 37° C. for 22 hours. After incubation, 150 μL of CC-treated Pm lysate was dispensed into a deep-well plate (polypropylene, 2 mL volume, Corning Axygen catalogue #P-DW-20-C). Candidate IC50 compounds from TABLE 1 and vehicle control (respective vehicle control of DMSO or water), or control compounds (IC50 control, 8-Quinolinol hemisulfate salt (Sigma Catalog #55100)) were added at a 1:100 dilution (e.g., 1.5 μL per well). The plates were agitated on a plate shaker for 1 minute. d9-choline chloride (1.5 μL of 5 mM) was added to all wells to reach a final d9-choline chloride concentration of 50 μM.
The plates were again agitated on a plate shaker for 1 minute and incubated at 37° C. for two hours. After incubation, 1.5 μL of formic acid was added to each well (final concentration=1% formic acid). The plates were agitated on a plate shaker for 1 minute and placed on ice. Cell lysate samples were spiked with stable isotope labeled internal standard (22.5 μL of 6 μg/mL of 13C3-trimethylamine (13C3-TMA) was added to each sample), then d9-trimethylamine (d9-TMA), trimethylamine (TMA) and 13C3-TMA were isolated from the lysate after protein precipitation as described below. Acetonitrile acidified with 0.1% formic acid, 600 μL, was added to each sample which was then centrifuged (2,100 g for 20 minutes) to pellet the protein and other precipitates. The supernatant was removed and analyzed as described below. The TMA, d9-TMA and 13C3-TMA in the isolated supernatant samples were subjected to gradient High Performance Liquid Chromatography (HPLC) analysis on a Waters Atlantis HILIC Silica column, from Waters Corp., Milford, Mass., (2.1×50 mm, 3 μm particles) with an Atlantis Silica HILIC Sentry guard column, from Waters Corp., Milford, Mass., (100 Å, 3 μm, 2.1 mm×10 mm), 10 mM ammonium formate in water with 0.1% formic acid as mobile phase A and 0.1% formic acid in acetonitrile as mobile phase B. Detection and quantitation was achieved by tandem mass spectrometry operating under multiple reaction monitoring (MRM) MS/MS conditions (m/z 60.1→44.1 for TMA, m/z 69.1→49.1 for d9-TMA, m/z 63.0→46.1 for 13C3-TMA). TMA and d9-TMA calibration standards (STD), prepared in 80/20/0.1% acetonitrile/Water/Formic Acid, were used to construct a regression curve by plotting the response (peak area TMA/peak area 13C3-TMA) versus concentration for each standard. […]
As for `C[N+](C)(CCN=C=S)CCOc1ccccc1` [Compound 13, N-(2-Phenoxyethyl)-2-isothiocyanato-N,N-dimethylethan-1-aminium triflate], the pIC50 was 5.88.

On to `C[N+](C)(CCCCl)CCN=C=S` [Compound 24, N-(3-Chloropropyl)-2-isothiocyanato-N,N-dimethylethan-1-aminium triflate], for which the pIC50 was 4.20.

In the case of `OCc1cccc[n+]1CCCN=C=S` [Compound 31, 2-(hydroxymethyl)-1-(3-isothiocyanatopropyl)pyridin-1-ium trifluoromethanesulfonate], the pIC50 is 3.60.

Regarding `C[N+](C)(CCO)CCCN=C=S` [Compound 36, N-(2-hydroxyethyl)-3-isothiocyanato-N,N-dimethylpropan-1-aminium trifluoromethanesulfonate], the pIC50 is 4.00.

For the molecule `C[N+]1(CCN=C=S)CCOCC1` [Compound 40, 4-Methyl-4-(2-isothiocyanatoethyl)morpholinium trifluoromethanesulfonate], the pIC50 is 3.54.

On to `OCC[N+]1(CCN=C=S)CCCCC1` [Compound 33, 1-(2-hydroxyethyl)-1-(2-isothiocyanatoethyl)piperidin-1-ium trifluoromethanesulfonate], for which the pIC50 was 3.70.

Regarding `C[N+]1(CCN=C=S)CCC(O)CC1` (stereo not drawn) [Compound 39, 4-hydroxy-1-(2-isothiocyanatoethyl)-1-methylpiperidin-1-ium bromide], the pIC50 is 4.59.

For the molecule `S=C=NCC[N+]12CCC(CC1)CC2` [Compound 42, 1-(2-Isothiocyanatoethyl)quinuclidinium trifluoromethanesulfonate], the pIC50 is 4.92.

For the molecule `CC[N+](CC)(CCCN=C=S)CC1CO1` (stereo not drawn) [Compound 16, N-(Oxiranylmethyl)-3-isothiocyanato-N,N-diethylpropan-1-aminium triflate], the pIC50 is 4.40.

Consider `Oc1ccc[n+](CCCN=C=S)c1` [Compound 32, 3-hydroxy-1-(3-isothiocyanatopropyl)pyridin-1-ium trifluoromethanesulfonate], for which the pIC50 is 2.70.

`CC[N+](CC)(CCCN=C=S)CCOC` [Compound 18, N-(2-Methoxyethyl)-3-isothiocyanato-N,N-diethylpropan-1-aminium triflate]: the pIC50 is 4.40.

On to `CC[N+](CC)(CCCCl)CCCN=C=S` [Compound 26, N-(3-Chloropropyl)-3-isothiocyanato-N,N-diethylpropan-1-aminium triflate], for which the pIC50 is 4.30.

As for `Oc1ccc[n+](CCN=C=S)c1` [Compound 29, 1-(2-Isothiocyanatoethyl)-3-hydroxypyridinium bromide], the pIC50 was 2.90.

For `C[N+](C)(CCBr)CCN=C=S` [Compound 14, N-(2-Bromoethyl)-2-isothiocyanato-N,N-dimethylethan-1-aminium triflate], the pIC50 is 4.60.

Turning to `C#CC[N+](C)(C)CCN=C=S` [Compound 37, N-(2-isothiocyanatoethyl)-N,N-dimethylprop-2-yn-1-aminium bromide], the pIC50 is 5.70.

For the molecule `OCc1cccc[n+]1CCN=C=S` [Compound 30, 1-(2-Isothiocyanatoethyl)-(2-hydroxymethyl)pyridinium triflate], the pIC50 is 4.60.

For `C[N+]1(CCN=C=S)CCCCC1CO` (stereo not drawn) [Compound 34, 2-(hydroxymethyl)-1-(2-isothiocyanatoethyl)-1-methylpiperidin-1-ium trifluoromethanesulfonate], the pIC50 is 3.50.

Take `CC[N+](CC)(CCF)CCCN=C=S` [Compound 27, N-(2-Fluoroethyl)-3-isothiocyanato-N,N-diethylpropan-1-aminium triflate]: the pIC50 was 4.50.

Regarding `C[N+](C)(CCCl)CCN=C=S` [Compound 23, N-(2-Chloroethyl)-2-isothiocyanato-N,N-dimethylethan-1-aminium triflate], the pIC50 was 4.60.

`C[N+]1(CCCN=C=S)CCOCC1` [Compound 43, 4-Methyl-4-(3-isothiocyanatopropyl)morpholinium trifluoromethanesulfonate]: the pIC50 is below 3.00.

Consider `OCC[N+]1(CCCN=C=S)CCCCC1` [Compound 35, 1-(2-hydroxyethyl)-1-(3-isothiocyanatopropyl)piperidin-1-ium trifluoromethanesulfonate], for which the pIC50 is 2.90.

In the case of `C[N+]1(CCCN=C=S)CCCCC1` [Compound 44, 1-Methyl-1-(3-isothiocyanatopropyl)piperidinium trifluoromethanesulfonate], the pIC50 was below 3.00.

Take `CCOCC[N+](C)(C)CCN=C=S` [Compound 19, N-(2-Ethoxyethyl)-2-isothiocyanato-N,N-dimethylethan-1-aminium triflate]: the pIC50 is 4.20.

In the case of `CC[N+](CC)(CCCN=C=S)CCOc1ccccc1` [Compound 10, N-(2-Phenoxyethyl)-3-isothiocyanato-N,N-diethylpropan-1-aminium triflate], the pIC50 is 4.53.

`CC[N+](CC)(CCCN=C=S)CCCOC` [Compound 22]: the pIC50 was 4.50.

As to `C[N+]1(CCN=C=S)CCCCC1` [Compound 41, 1-Methyl-1-(2-isothiocyanatoethyl)piperidium trifluoromethanesulfonate], the pIC50 is 4.50.

For the molecule `CCOCC[N+](CC)(CC)CCCN=C=S` [Compound 20, N-(2-Ethoxyethyl)-3-isothiocyanato-N,N-diethylpropan-1-aminium triflate], the pIC50 was 4.70.

Regarding `CC[N+](CC)(CCCl)CCCN=C=S` [Compound 25, N-(2-Chloroethyl)-3-isothiocyanato-N,N-diethylpropan-1-aminium triflate], the pIC50 is 4.70.

On to `COCC[N+](C)(C)CCN=C=S` [Compound 17, N-(2-Methoxyethyl)-2-isothiocyanato-N,N-dimethylethan-1-aminium triflate], for which the pIC50 is 4.50.

For `COCCC[N+](C)(C)CCN=C=S` [Compound 21, N-(3-Methoxypropyl)-2-isothiocyanato-N,N-dimethylethan-1-aminium triflate], the pIC50 is 4.50.

With `C=C(C[N+](C)(C)CCN=C=S)C(=O)OC` [Compound 38, N-(2-isothiocyanatoethyl)-2-(methoxycarbonyl)-N,N-dimethylprop-2-en-1-aminium bromide], the pIC50 is 4.85.

As to `C[N+](C)(CCN=C=S)CCOCc1ccccc1` [Compound 11, N-(2-Benzyloxyethyl)-2-isothiocyanato-N,N-dimethylethan-1-aminium triflate], the pIC50 is 4.79.

`S=C=NCC[n+]1ccccc1` [Compound 28, 1-(2-Isothiocyanatoethyl)pyridin-1-ium bromide]: the pIC50 was 4.50.

As to `CC[N+](CC)(CCCN=C=S)CCOCc1ccccc1` [Compound 12, N-(2-Benzyloxyethyl)-3-isothiocyanato-N,N-diethylpropan-1-aminium triflate], the pIC50 is 4.54.

As to `C[N+](C)(CCN=C=S)CC1CO1` (stereo not drawn) [Compound 15, N-(Oxiranylmethyl)-2-isothiocyanato-N,N-dimethylethan-1-aminium triflate], the pIC50 is 3.71.

For `S=C=NCCC[N+]12CCC(CC1)CC2` [Compound 45, 1-(3-Isothiocyanatopropyl)quinuclidinium trifluoromethanesulfonate], the pIC50 is 3.94.
